Laboratory results reported in US12492197B2, “3,5-disubstituted pyrazole compounds as kinase inhibitors and uses thereof” (IMPACT THERAPEUTICS (SHANGHAI), INC, priority 2019, dated 2025).

What was measured:
[1] = molecular target: T1, CHK1 kinase (Homo sapiens, UniProt O14757); assay: CHK1 kinase inhibition, ADP-Glo kinase assay; assay type: biochemical; details: ATP 10 μM, CHK1 1 ng/well; for IC50: read-out: IC50 (inhibitory effect on CHK1 kinase activity); for inhibition at 0.01 µM: compound concentration 10 nM, read-out: Inh % (inhibitory effect on CHK1 kinase activity)
T1 construct: purchased Promega V1941
T1 sequence (O14757 1-476): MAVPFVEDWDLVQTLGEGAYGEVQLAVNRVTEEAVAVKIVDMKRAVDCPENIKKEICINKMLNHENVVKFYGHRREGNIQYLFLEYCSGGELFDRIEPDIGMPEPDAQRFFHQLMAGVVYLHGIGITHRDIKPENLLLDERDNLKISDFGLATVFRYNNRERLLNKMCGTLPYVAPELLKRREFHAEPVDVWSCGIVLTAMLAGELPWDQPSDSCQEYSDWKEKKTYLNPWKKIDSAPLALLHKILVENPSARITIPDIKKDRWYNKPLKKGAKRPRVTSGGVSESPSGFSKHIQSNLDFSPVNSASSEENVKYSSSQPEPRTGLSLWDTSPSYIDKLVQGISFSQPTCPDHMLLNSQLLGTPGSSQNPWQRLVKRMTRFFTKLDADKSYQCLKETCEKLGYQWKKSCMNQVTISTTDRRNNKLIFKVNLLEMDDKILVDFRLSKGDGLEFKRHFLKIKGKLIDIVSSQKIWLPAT
Description: 2 μL of kinase CHK1 (#V1941, Promega), 1 μL of compound diluted with buffer, and 2 μL of ATP substrate was successively added to a 384-well plate (final concentration of CHK1 was 1 ng/well, ATP was 10 μM). The positive control wells contained CHK1, ATP and DMSO whereas the negative control wells contained ATP, DMSO without enzyme. The mixtures were centrifuged at 1000 rpm for 1 minute and kept in darkness at room temperature for 1 hour to react. Then, 5 μL of ADP-Glo reagent was added to each well and incubated at room temperature for 40 minutes. At the end of incubation, 10 μL of kinase detection reagent was added to each well, and the relative chemiluminescence values (RLU) were measured on Varioskan® Flash (Thermo). The following calculation was performed: Inhibition rate %=(RLU of positive control−RLU of compound)/(RLU of positive control−RLU of negative control)×100. Data were analyzed using GraphPad Prism6.0 and fitted using the curve equation: Y=Bottom+(Top-Bottom)/(1+10^((Log IC50−X)*HillSlope)), and IC50 values were calculated.

[2] = test system: human breast cancer cell HCC1806; assay: Proliferation of HCC1806 cells, MTT assay; assay type: cell-based; details: HCC1806, 72 h, 3 days treatment, read-out: IC50 (inhibition of proliferation of HCC1806)
Description: Newly revived HCC1806 cells (purchased from Guangzhou Genio) were cultured and passaged for at least three generations before use. Cells were used at 90% confluency for experiments. Cells were digested with trypsinase and centrifuged at 800 rpm for 5 minutes. The cell pellets were resuspended in fresh RPMI1640 medium and cells were counted. Cells were seeded on 96-well cell culture plates at 2000 cells/well and incubated overnight at 37° C., 5% CO2. The stock solutions of the test substances (including the test compounds and the reference compound) were serially diluted to 8 concentrations with DMSO at a ratio of 1:3. Five μL of each of the serially diluted solutions were added to 120 μL of medium (diluted by 25 times) and mixed by shaking. […] The cell culture plates were returned to incubator at 37° C., 5% CO2 for 3 days. At the end of treatment the cell viability was determined by MTT colorimetric assay. Cell culture medium in each well was replaced by 100 μL/well of serum-free fresh medium containing MTT (0.5 mg/mL), and the culture was continued for additional 4 hours.
(§1) Data was analyzed by GraphPad Prism 6.0. The inhibitory effects of compounds on cell proliferation were plotted based on cell viability vs. the logarithm of compound concentration. Cell viability %=(ODcompound−ODbackground)/(ODDMSO−ODbackground)×100.

[3] = test system: human colon cancer cell LoVo; assay: Proliferation of LoVo cells, MTT assay; assay type: cell-based; details: 96 h, 4 days treatment, read-out: IC50 (inhibition of proliferation of LoVo)
Description: Newly revived LoVo cells (purchased from Shanghai Cell Institute) were cultured and passaged for at least three generations before use. Cells were used at 90% confluence for experiment. Cells were digested with trypsinase and centrifuged at 800 rpm for 5 minutes and the supernatant was discarded. The cell pellets were resuspended in fresh RPMI1640 medium and counted. Cells were seeded on 96-well cell culture plates at 5000 cells/well and incubated overnight at 37° C., 5% CO2. The stock solutions of the test substances (including the test compounds and the reference compound) were serially diluted to 8 concentrations with DMSO at a ratio of 1:3. 5 μL of each series diluted solutions was added to 120 μL of medium (diluted by 25 times) and mixed by shaking. […] The cell culture plates were returned to incubator at 37° C. and 5% CO2 for 4 days. At the end of treatment, the cell viability was determined by MTT colorimetric assay. Cell culture medium in each well was replaced by 100 μL/well of serum-free DMEM medium containing MTT (0.5 mg/mL), and the culture was continued for additional 4 hours. Medium was then discarded and 100 μL/well of DMSO was added.
as §1

| IC50 [1] [nM] | IC50 [2] [nM] | IC50 [3] [nM] | inhibition at 0.01 µM [1] [%] | SMILES |
| --- | --- | --- | --- | --- |
| 0.59 | 14.7 | 13.3 | – | N#Cc1cnc(Nc2cc(-c3c(F)cccc3OC[C@H]3CCCNC3)[nH]n2)cn1 [Example 46, (S)-5-((5-(2-fluoro-6-(piperidin-3-ylmethoxy)phenyl)-1H-pyrazol-3-yl)amino)pyrazine-2-carbonitrile] |
| 0.58 | 6.5 | 5.4 | – | N#Cc1cnc(Nc2cc(-c3c(O)cccc3OC[C@H]3CCCNC3)[nH]n2)cn1 [Example 48, (S)-5-((5-(2-hydroxy-6-(piperidin-3-ylmethoxy)phenyl)-1H-pyrazol-3-yl)amino)pyrazine-2-carbonitrile] |
| – | 5.7 | 6 | – | COc1cc(C)cc(OCC2CNC2)c1-c1cc(Nc2cnc(C#N)cn2)n[nH]1 [Example 72, 5-((5-(2-(azetidin-3-ylmethoxy)-6-methoxy-4-methylphenyl)-1H-pyrazol-3-yl)amino)pyrazine-2-carbonitrile] |
| – | 676 | 323 | – | Cc1cc(F)c(-c2cc(Nc3cnc(C#N)cn3)n[nH]2)c(OC[C@@H]2CNCCO2)c1 [Example 64, (S)-5-((5-(2-fluoro-4-methyl-6-(morpholin-2-ylmethoxy)phenyl)-1H-pyrazol-3-yl)amino)pyrazine-2-carbonitrile] |
| – | > 1000 | 913 | – | N#Cc1cnc(Nc2cc(-c3c(F)cc(Cl)cc3OC[C@@H]3CNCCO3)[nH]n2)cn1 [Example 58, (S)-5-((5-(4-chloro-2-fluoro-6-(morpholin-2-ylmethoxy)phenyl)-1H-pyrazol-3-yl)amino)pyrazine-2-carbonitrile] |
| 1.17 | 1.6 | 1.6 | – | COc1cc(C)cc(OC[C@H]2CCCNC2)c1-c1cc(Nc2cnc(C#N)cn2)n[nH]1 [Example 43, (S)-5-((5-(2-methoxy-4-methyl-6-(piperidin-3-ylmethoxy)phenyl)-1H-pyrazol-3-yl)amino)pyrazine-2-carbonitrile] |
| 2.27 | 60 | 60.8 | – | N#Cc1cnc(Nc2cc(-c3c(F)cc(Br)cc3OC[C@H]3CCCNC3)[nH]n2)cn1 [Example 59, (S)-5-((5-(4-bromo-2-fluoro-6-(piperidin-3-ylmethoxy)phenyl)-1H-pyrazol-3-yl)amino)pyrazine-2-carbonitrile] |
| 1.22 | 26.5 | 14.3 | – | COc1cc(F)cc(OC[C@H]2CCCN2)c1-c1cc(Nc2cnc(C#N)cn2)n[nH]1 [Example 66, (R)-5-((5-(4-fluoro-2-methoxy-6-(pyrrolidin-2-ylmethoxy)phenyl)-1H-pyrazol-3-yl)amino)pyrazine-2-carbonitrile] |
| 1.16 | 4.9 | 3.6 | – | COc1cc(Br)cc(OC[C@H]2CCNC2)c1-c1cc(Nc2cnc(C#N)cn2)n[nH]1 [Example 70, (S)-5-((5-(4-bromo-2-methoxy-6-(pyrrolidin-3-ylmethoxy)phenyl)-1H-pyrazol-3-yl)amino)pyrazine-2-carbonitrile] |
| 0.3 | 42.2 | 42.5 | – | COc1cccc(OC[C@H]2CCCNC2)c1-c1cc(Nc2cnc(C#N)c(C)n2)n[nH]1 [Example 28, (S)-5-((5-(2-methoxy-6-(piperidin-3-ylmethoxy)phenyl)-1H-pyrazol-3-yl)amino)-3-methylpyrazine-2-carbonitrile] |
| – | 37.6 | 30.1 | 95 | COc1cccc(OC[C@H]2COCCN2)c1-c1cc(Nc2cnc(C#N)cn2)n[nH]1 [Example 7, (R)-5-((5-(2-methoxy-6-(morpholin-3-ylmethoxy)phenyl)-1H-pyrazol-3-yl)amino)pyrazine-2-carbonitrile] |
| – | 102 | 64.9 | 69 | COc1cccc(OC[C@H]2CCCOC2)c1-c1cc(Nc2cnc(C#N)cn2)n[nH]1 [Example 34, (S)-5-((5-(2-methoxy-6-((tetrahydro-2H-pyran-3-yl)methoxy)phenyl)-1H-pyrazol-3-yl)amino)pyrazine-2-carbonitrile] |
| – | 16.7 | 17.3 | – | COc1cc(F)cc(OC[C@H]2CNCCS2)c1-c1cc(Nc2cnc(C#N)cn2)n[nH]1 [Example 77-B, (R)-5-((5-(4-fluoro-2-methoxy-6-(thiomorpholin-2-ylmethoxy)phenyl)-1H-pyrazol-3-yl)amino)pyrazine-2-carbonitrile] |
| – | > 1000 | > 1000 | – | COc1cccc(OC[C@H]2CCCNC2)c1-c1[nH]nc(Nc2cnc(C#N)cn2)c1C [Example 51, (S)-5-((5-(2-methoxy-6-(piperidin-3-ylmethoxy)phenyl)-4-methyl-1H-pyrazol-3-yl)amino)pyrazine-2-carbonitrile] |
| – | 3.6 | 3.1 | – | COc1cc(F)cc(OC[C@@H]2CNCCS2)c1-c1cc(Nc2cnc(C#N)cn2)n[nH]1 [Example 77-A, (S)-5-((5-(4-fluoro-2-methoxy-6-(thiomorpholin-2-ylmethoxy)phenyl)-1H-pyrazol-3-yl)amino)pyrazine-2-carbonitrile] |
| – | > 1000 | 554 | – | N#Cc1cnc(Nc2cc(-c3c(F)cc(Br)cc3OC[C@@H]3CNCCO3)[nH]n2)cn1 [Example 60, (S)-5-((5-(4-bromo-2-fluoro-6-(morpholin-2-ylmethoxy)phenyl)-1H-pyrazol-3-yl)amino)pyrazine-2-carbonitrile] |
| – | > 1000 | > 1000 | – | COc1cccc(OC[C@H]2CCCNC2)c1-c1cc(Nc2ncc(C#N)nc2C)n[nH]1 [Example 29, (S)-5-((5-(2-methoxy-6-(piperidin-3-ylmethoxy)phenyl)-1H-pyrazol-3-yl)amino)-6-methylpyrazine-2-carbonitrile] |
| – | 26.8 | 35.2 | – | COc1cc(F)cc(OCC2CNCCC2(C)C)c1-c1cc(Nc2cnc(C#N)cn2)n[nH]1 (stereo not shown) [Example 50, 5-((5-(2-((4,4-dimethylpiperidin-3-yl)methoxy)-4-fluoro-6-methoxyphenyl)-1H-pyrazol-3-yl)amino)pyrazine-2-carbonitrile] |
| – | 111 | 97 | – | Cc1cc(F)c(-c2cc(Nc3cnc(C#N)cn3)n[nH]2)c(OCC2CNC2)c1 [Example 61, 5-((5-(2-(azetidin-3-ylmethoxy)-6-fluoro-4-methylphenyl)-1H-pyrazol-3-yl)amino)pyrazine-2-carbonitrile] |
| – | 3.1 | 3.2 | – | CCc1cc(OC)c(-c2cc(Nc3cnc(C#N)cn3)n[nH]2)c(OC[C@H]2CCCNC2)c1 [Example 75, (S)-5-((5-(4-ethyl-2-methoxy-6-(piperidin-3-ylmethoxy)phenyl)-1H-pyrazol-3-yl)amino)pyrazine-2-carbonitrile] |
